Test results taken from ChEMBL document CHEMBL1629642, “In vitro efficacy of ST246 against smallpox and monkeypox” (Antimicrob Agents Chemother, 2009).
Active and inactive are the calls of the source. No cut-off for these calls is given here.

What was measured:
Variola virus = test: Antiviral activity against Variola virus SUD47-juba infected in african green monkey BSC-40 cells at 0.05 to 5 uM assessed as reduction in virus-induced cytopathic effect; type: functional, organism-based
Monkeypox virus = test: Antiviral activity against Monkeypox virus V81-I-179 infected in african green monkey BSC-40 cells assessed as reduction in virus-induced cytopathic effect at 0.05 to 5 uM; type: functional, organism-based

## O=C(NN1C(=O)[C@@H]2[C@@H]3C=C[C@@H]([C@H]4C[C@@H]34)[C@@H]2C1=O)c1ccc(C(F)(F)F)cc1 [TECOVIRIMAT]
Variola virus
  Activity: Active
Monkeypox virus
  Activity: Active
